Measurements from publication PMC4632503, “Targeting of Helicobacter pylori thymidylate synthase ThyX by non-mitotoxic hydroxy-naphthoquinones” (Open Biology, 2015).
Read-outs that look alike come from different tables or passages of the source.

Experiments:
H. pylori strain 26695 = assay: MIC, broth microdilution test, strain 26695; assay type: cell-based; settings: Helicobacter pylori, 26695, 24 h, read-out: minimal inhibitory concentration (MIC) strain 26695
Procedure: (§1) The in vitro anti-bacterial activity of 2-OH-1,4-NQ compounds was assessed against the 26695 and SS1 strains of H. pylori. DMSO was used as control in all experiments.
(§2) Disc diffusion tests were performed in triplicate, including a DMSO-only control on each plate, as specified in the electronic supplementary material. Minimal inhibitory concentrations (MICs) were determined using a broth microdilution test in 24-well microtitre plates. For test inocula, an overnight preculture of H. pylori strains 26695 and SS1 was diluted to an OD600 of approximately 0.1 and 0.5 ml of this suspension was transferred to each well. Ten microlitres of twofold serial dilutions of each compound in DMSO, ranging in concentration from 0.625 to 20 µg ml^−1, were added and the covered plates were incubated for 24 h at 37°C with orbital shaking at 140 r.p.m. under microaerophilic conditions. The MIC was determined as the lowest compound concentration resulting in full growth inhibition after 24 h of incubation. All the tests were done in triplicate, including cell-free and DMSO-only controls.

H. pylori strain SS1 = assay: MIC, broth microdilution test, strain SS1; assay type: cell-based; settings: Helicobacter pylori, 24 h, read-out: minimal inhibitory concentration (MIC) strain SS1
Procedure: as §1, §2

HpThyX = biological target: T1, HpThyX (Helicobacter pylori, UniProt O26061); assay: tritium release (deprotonation) assay of [5-3H]dUMP; assay type: biochemical; settings: 20 min, read-out: inhibition against ThyX (% remaining activity relative to control)
T1 construct: His6; made in house; host or cells: Escherichia coli BL21 (plasmid pGL2, pBAD promoter)
T1 sequence (O26061 whole entry): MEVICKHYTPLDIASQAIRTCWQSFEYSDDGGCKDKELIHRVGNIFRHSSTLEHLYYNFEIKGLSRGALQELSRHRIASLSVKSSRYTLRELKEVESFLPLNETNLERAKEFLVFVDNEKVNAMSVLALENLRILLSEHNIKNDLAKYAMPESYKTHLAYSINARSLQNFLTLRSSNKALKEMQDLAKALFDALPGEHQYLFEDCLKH
Procedure: HpThyX activity was assessed by measuring either deprotonation of [5-^3H]dUMP or NAPDH oxidation activities.
In the tritium release (deprotonation) assays, typical reactions contained 10 mM MgCl2, 10% (v/v) glycerol, 500 µM FAD, 2 mM NADPH, 1 mM CH2H4Folate and 10 mM β-mercaptoethanol in 50 mM HEPES (pH 8). Different concentrations of dUMP were also included in the reaction mixtures. The specific activity of tritiated [5-^3H]dUMP (diammonium salt) stock was 15–30 Ci mmol^−1 (Moravek Biochemicals, CA, USA). 2-OH-1,4-NQ derivatives were prepared at 100 µM in 1% DMSO. Reactions were initiated by adding the enzyme (10 µM) and were stopped after 20 min incubation at 37°C.

[1] = semi-quantitative deprotonation assay, remaining activity, lower = stronger inhibition

SMILES | MIC (H. pylori strain 26695; full growth inhibition) | MIC (H. pylori strain 26695; value in brackets) | MIC (H. pylori strain SS1; full growth inhibition) | MIC (H. pylori strain SS1; value in brackets) | remaining activity at 100 µM (HpThyX; [1]) | remaining activity at 100 µM (HpThyX)
O=C1C(O)=C(Cc2ccc(Cl)cc2)C(=O)c2ccccc21 [010-A] | 10 µg/mL | 33.5 µM | 5 µg/mL | 16.7 µM | 49.5% | –
O=C1C(O)=C(Cc2cc(F)cc(F)c2)C(=O)c2ccccc21 [010-B] | 10 µg/mL | 33.3 µM | 10 µg/mL | 33.3 µM | 74.3% | –
O=C1C(O)=C(Cc2ccc(F)cc2)C(=O)c2ccccc21 [007-E] | 10 µg/mL | 35.4 µM | 10 µg/mL | 35.4 µM | 66.3% | –
COc1ccc(CC2=C(O)C(=O)c3ccccc3C2=O)cc1OC [010-K] | 20 µg/mL | 61.7 µM | 10 µg/mL | 30.8 µM | 75.1% | –
CC(C)Oc1ccc(CC2=C(O)C(=O)c3ccccc3C2=O)cc1 [007-D] | ≥ 20 µg/mL | ≥ 62 µM | 20 µg/mL | 62 µM | 45.7% | –
O=C1C(O)=C(Cc2ccc(Oc3ccccc3)cc2)C(=O)c2ccccc21 [007-G] | 20 µg/mL | 56.2 µM | 5 µg/mL | 14 µM | 61.8% | –
O=C1C(O)=C(Cc2ccc(C(F)(F)F)cc2)C(=O)c2ccccc21 [007-F] | 5 µg/mL | 15.1 µM | 10 µg/mL | 15.1 µM | – | 60.6%
COc1cc(CC2=C(O)C(=O)c3ccccc3C2=O)ccc1O [010-H] | 20 µg/mL | 64.5 µM | 10 µg/mL | 32.2 µM | 57.8% | –
